Tests used:
Assay in all cases: relative viability (nuclei count vs DMSO), 5 days (fraction); higher = more cells survive
A-427 = test system: A-427
In short: (§1)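 Relative viability is defined as nuclei in treated wells over nuclei in vehicle wells. Duplicate plates were run and medians reported. Lung cancer cell lines in 1536-well plates were dosed by pin tool one day after seeding, with one drug or with a fixed anchor-drug dose plus five library-drug doses (not always all listed) in √10 steps, and nuclei were counted after 5 days.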

UMC-11 = test system: UMC-11
In short: as §1

NCI-H838 = test system: NCI-H838
In short: as §1

HARA = test system: HARA
In short: as §1

ChaGo-K-1 = test system: ChaGo-K-1
In short: as §1

SK-LU-1 = test system: SK-LU-1
In short: as §1

ABC-1 = test system: ABC-1
In short: as §1

NCI-H1993 = test system: NCI-H1993
In short: as §1

HCC-366 = test system: HCC-366
In short: as §1

NCI-H2228 = test system: NCI-H2228
In short: as §1

EMC-BAC-2 = test system: EMC-BAC-2
In short: as §1

NCI-H1793 = test system: NCI-H1793
In short: as §1

NCI-H1650 = test system: NCI-H1650
In short: as §1

NCI-H1944 = test system: NCI-H1944
In short: as §1

LC-2-ad = test system: LC-2-ad
In short: as §1

NCI-H2405 = test system: NCI-H2405
In short: as §1

HCC-15 = test system: HCC-15
In short: as §1

NCI-H2009 = test system: NCI-H2009
In short: as §1

NCI-H1734 = test system: NCI-H1734
In short: as §1

LK-2 = test system: LK-2
In short: as §1

COR-L23 = test system: COR-L23
In short: as §1

HCC-78 = test system: HCC-78
In short: as §1

NCI-H23 = test system: NCI-H23
In short: as §1

NCI-H2023 = test system: NCI-H2023
In short: as §1

## Clc1ccc(Nc2nnc(Cc3ccncc3)c3ccccc23)cc1 [Vatalanib] + CC(=O)c1c(C)c2cnc(Nc3ccc(N4CCNCC4)cn3)nc2n(C2CCCC2)c1=O [Palbociclib] (partner 0.5 µM)
A-427; first compound 0.04 µM
  relative viability: 0.568
A-427; first compound 0.1265 µM
  relative viability: 0.482
A-427; first compound 0.4 µM
  relative viability: 0.546
A-427; first compound 4 µM
  relative viability: 0.508
UMC-11; first compound 0.04 µM
  relative viability: 0.3
UMC-11; first compound 0.1265 µM
  relative viability: 0.316
UMC-11; first compound 0.4 µM
  relative viability: 0.34
UMC-11; first compound 1.265 µM
  relative viability: 0.356
UMC-11; first compound 4 µM
  relative viability: 0.338
NCI-H838; first compound 0.04 µM
  relative viability: 0.227
NCI-H838; first compound 0.1265 µM
  relative viability: 0.235
NCI-H838; first compound 0.4 µM
  relative viability: 0.218
NCI-H838; first compound 1.265 µM
  relative viability: 0.203
NCI-H838; first compound 4 µM
  relative viability: 0.215
HARA; first compound 0.04 µM
  relative viability: 0.227
HARA; first compound 0.1265 µM
  relative viability: 0.361
HARA; first compound 0.4 µM
  relative viability: 0.224
HARA; first compound 1.265 µM
  relative viability: 0.244
HARA; first compound 4 µM
  relative viability: 0.238
ChaGo-K-1; first compound 0.04 µM
  relative viability: 0.998
ChaGo-K-1; first compound 0.1265 µM
  relative viability: 0.885
ChaGo-K-1; first compound 0.4 µM
  relative viability: 0.945
ChaGo-K-1; first compound 1.265 µM
  relative viability: 0.969
ChaGo-K-1; first compound 4 µM
  relative viability: 0.961
SK-LU-1; first compound 0.04 µM
  relative viability: 0.398
SK-LU-1; first compound 0.1265 µM
  relative viability: 0.415
SK-LU-1; first compound 0.4 µM
  relative viability: 0.499
SK-LU-1; first compound 1.265 µM
  relative viability: 0.415
SK-LU-1; first compound 4 µM
  relative viability: 0.385
ABC-1; first compound 0.04 µM
  relative viability: 0.662
ABC-1; first compound 0.1265 µM
  relative viability: 0.7
ABC-1; first compound 0.4 µM
  relative viability: 0.892
ABC-1; first compound 4 µM
  relative viability: 0.59
NCI-H1993; first compound 0.04 µM
  relative viability: 0.872
NCI-H1993; first compound 0.1265 µM
  relative viability: 0.653
NCI-H1993; first compound 0.4 µM
  relative viability: 0.814
NCI-H1993; first compound 1.265 µM
  relative viability: 0.562
NCI-H1993; first compound 4 µM
  relative viability: 0.528
HCC-366; first compound 0.04 µM
  relative viability: 0.462
HCC-366; first compound 0.1265 µM
  relative viability: 0.348
HCC-366; first compound 0.4 µM
  relative viability: 0.457
HCC-366; first compound 1.265 µM
  relative viability: 0.391
HCC-366; first compound 4 µM
  relative viability: 0.355
NCI-H2228; first compound 0.04 µM
  relative viability: 0.795
NCI-H2228; first compound 0.1265 µM
  relative viability: 0.838
NCI-H2228; first compound 0.4 µM
  relative viability: 0.806
NCI-H2228; first compound 1.265 µM
  relative viability: 0.765
NCI-H2228; first compound 4 µM
  relative viability: 0.612
EMC-BAC-2; first compound 0.04 µM
  relative viability: 0.545
EMC-BAC-2; first compound 0.1265 µM
  relative viability: 0.524
EMC-BAC-2; first compound 0.4 µM
  relative viability: 0.563
EMC-BAC-2; first compound 4 µM
  relative viability: 0.512
NCI-H1793; first compound 0.04 µM
  relative viability: 0.274
NCI-H1793; first compound 0.1265 µM
  relative viability: 0.262
NCI-H1793; first compound 0.4 µM
  relative viability: 0.324
NCI-H1793; first compound 1.265 µM
  relative viability: 0.285
NCI-H1793; first compound 4 µM
  relative viability: 0.319
NCI-H1650; first compound 0.04 µM
  relative viability: 0.364
NCI-H1650; first compound 0.1265 µM
  relative viability: 0.384
NCI-H1650; first compound 0.4 µM
  relative viability: 0.299
NCI-H1650; first compound 1.265 µM
  relative viability: 0.33
NCI-H1650; first compound 4 µM
  relative viability: 0.312
NCI-H1944; first compound 0.04 µM
  relative viability: 0.324
NCI-H1944; first compound 0.1265 µM
  relative viability: 0.301
NCI-H1944; first compound 0.4 µM
  relative viability: 0.364
NCI-H1944; first compound 1.265 µM
  relative viability: 0.29
NCI-H1944; first compound 4 µM
  relative viability: 0.319
LC-2-ad; first compound 0.04 µM
  relative viability: 0.494
LC-2-ad; first compound 0.1265 µM
  relative viability: 0.448
LC-2-ad; first compound 0.4 µM
  relative viability: 0.544
LC-2-ad; first compound 1.265 µM
  relative viability: 0.452
LC-2-ad; first compound 4 µM
  relative viability: 0.471
NCI-H2405; first compound 0.04 µM
  relative viability: 0.555
NCI-H2405; first compound 0.1265 µM
  relative viability: 0.496
NCI-H2405; first compound 0.4 µM
  relative viability: 0.54
NCI-H2405; first compound 4 µM
  relative viability: 0.529
HCC-15; first compound 0.04 µM
  relative viability: 0.711
HCC-15; first compound 0.1265 µM
  relative viability: 0.676
HCC-15; first compound 0.4 µM
  relative viability: 0.759
HCC-15; first compound 1.265 µM
  relative viability: 0.691
HCC-15; first compound 4 µM
  relative viability: 0.668
NCI-H2009; first compound 0.04 µM
  relative viability: 0.245
NCI-H2009; first compound 0.1265 µM
  relative viability: 0.203
NCI-H2009; first compound 0.4 µM
  relative viability: 0.249
NCI-H2009; first compound 1.265 µM
  relative viability: 0.24
NCI-H2009; first compound 4 µM
  relative viability: 0.213
NCI-H1734; first compound 0.04 µM
  relative viability: 0.338
NCI-H1734; first compound 0.1265 µM
  relative viability: 0.314
NCI-H1734; first compound 0.4 µM
  relative viability: 0.396
NCI-H1734; first compound 1.265 µM
  relative viability: 0.33
NCI-H1734; first compound 4 µM
  relative viability: 0.336
LK-2; first compound 0.04 µM
  relative viability: 0.41
LK-2; first compound 0.1265 µM
  relative viability: 0.694
LK-2; first compound 0.4 µM
  relative viability: 0.796
LK-2; first compound 1.265 µM
  relative viability: 0.762
LK-2; first compound 4 µM
  relative viability: 0.748
COR-L23; first compound 0.04 µM
  relative viability: 0.364
COR-L23; first compound 0.1265 µM
  relative viability: 0.286
COR-L23; first compound 0.4 µM
  relative viability: 0.322
COR-L23; first compound 1.265 µM
  relative viability: 0.293
COR-L23; first compound 4 µM
  relative viability: 0.297
HCC-78; first compound 0.04 µM
  relative viability: 0.471
HCC-78; first compound 0.1265 µM
  relative viability: 0.459
HCC-78; first compound 0.4 µM
  relative viability: 0.473
HCC-78; first compound 1.265 µM
  relative viability: 0.422
HCC-78; first compound 4 µM
  relative viability: 0.485
NCI-H23; first compound 0.04 µM
  relative viability: 0.469
NCI-H23; first compound 0.1265 µM
  relative viability: 0.435
NCI-H23; first compound 0.4 µM
  relative viability: 0.533
NCI-H23; first compound 1.265 µM
  relative viability: 0.473
NCI-H23; first compound 4 µM
  relative viability: 0.468
NCI-H2023; first compound 0.04 µM
  relative viability: 0.375
NCI-H2023; first compound 0.1265 µM
  relative viability: 0.344
NCI-H2023; first compound 0.4 µM
  relative viability: 0.439
NCI-H2023; first compound 1.265 µM
  relative viability: 0.393
NCI-H2023; first compound 4 µM
  relative viability: 0.366
